Like-named read-outs stand apart in the source and are kept apart here. Non-standard residues stand in square brackets, D forms with d. Residues, ends and D or L forms follow the SMILES beside them. *: point of attachment. F2Pmp = N[C@@H](Cc1ccc(C(F)(F)P(=O)(O)O)cc1)C(=O)O; Pmp = N[C@@H](Cc1ccc(CP(=O)(O)O)cc1)C(=O)O; pY = N[C@@H](Cc1ccc(OP(=O)(O)O)cc1)C(=O)O; AEEA = NCCOCCOCC(=O)O; X1 = O=C(O)C(C(=O)O)*
Assays:
[1] = molecular target: T1, full‐length SHP2 (Homo sapiens, UniProt Q06124); assay: DiFMUP phosphatase assay, peptide inhibition in the presence of ITIM-[dPEG4]2-ITSM activator; type: biochemical; details: for inhibitory activity against SHP2, in words: DiFMUP, 0.5 nM FL SHP2 activated with 26 nM tandem peptide, compared to peptide 21
T1 construct: 1–525) proteins were prepared; His-SUMO3 (pETM11-SUMO3 vector) (N, cleaved yes); made in house; host or cells: E. coli BL21(DE3)
T1 sequence (Q06124 1-525): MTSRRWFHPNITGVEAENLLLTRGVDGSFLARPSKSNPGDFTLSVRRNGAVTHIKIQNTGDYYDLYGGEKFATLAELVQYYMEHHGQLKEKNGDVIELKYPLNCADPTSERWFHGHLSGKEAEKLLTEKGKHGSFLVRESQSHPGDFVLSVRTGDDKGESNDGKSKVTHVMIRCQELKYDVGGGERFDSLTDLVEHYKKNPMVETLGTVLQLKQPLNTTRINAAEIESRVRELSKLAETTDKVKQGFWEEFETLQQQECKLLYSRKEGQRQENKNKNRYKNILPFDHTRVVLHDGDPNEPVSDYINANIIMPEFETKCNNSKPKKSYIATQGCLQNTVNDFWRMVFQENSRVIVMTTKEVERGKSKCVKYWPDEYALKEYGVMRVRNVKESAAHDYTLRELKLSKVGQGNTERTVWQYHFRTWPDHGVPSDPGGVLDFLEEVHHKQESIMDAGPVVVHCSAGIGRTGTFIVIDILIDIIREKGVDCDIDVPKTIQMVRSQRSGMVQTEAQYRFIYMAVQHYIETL
Method: (§1) 6. DiFMUP phosphatase assays
SHP2 dephosphorylation of the fluorogenic substrate 6,8-difluoro-4-methylumbiliferyl phosphate (DiFMUP) was measured to evaluate the effect of acetylated peptides on SHP2 activity. Final concentrations of 0.5 nM full-length SHP2, 200 µM DiFMUP (Invitrogen) and 26 nM bisphosphorylated tandem ITIM-[dPEG4]2-ITSM (CASLO ApS) were used, unless stated otherwise, per well in 96-well plates (OptiPlate-96 F Black; PerkinElmer). For peptide activation assays, each well contained 60 µL of reaction buffer (50 mM HEPES pH 7.6, 150 mM NaCl, 1 mM EDTA, 0.05% Tween 20, freshly added 5 mM DTT), 10 µL of SHP2 and 20 µL of the test peptide (0.096 nM – 51.2 µM final concentration). For peptide inhibition assays in the presence of a SHP2 activator, each well contained 40 µL of reaction buffer (50 mM HEPES pH 7.6, 150 mM NaCl, 1 mM EDTA, 0.05% Tween 20, freshly added 5 mM DTT), 10 µL of SHP2 and 40 µL of previously mixed bisphosphorylated tandem ITIM-[dPEG4]2-ITSM activator and test peptide (0.096 nM – 51.2 µM or 0.376 nM – 200 µM final concentration). To obtain the maximal activity, 10 µL of SHP2 and 20 µL of bisphosphorylated tandem ITIM-[dPEG4]2-ITSM activator was added to 60 µL of buffer. Samples were incubated for 20 minutes at room temperature and then 10 µL of DiFMUP was added to each sample, to give a final volume of 100 µL per well. For background subtraction, 10 µL of DiFMUP was added to 80 µL of buffer. The fluorescence was immediately measured on a Synergy H1 Microplate Reader (BioTek) with the excitation and emission monitored at 358 nm and 452 nm, respectively, over 30 minutes. Data were analysed in Excel 2016 by subtracting background values from emission values and calculating the slope of the emission profiles. Data were then further analysed in GraphPad Prism 6 by either: 1) plotting the slope against the peptide concentration and fitting the data to a variable slope model of non-linear regression; or 2) normalising the data to the maximal activity (SHP2 in the presence of ITIM-[dPEG4]2-ITSM; set to 100% activity) to obtain the % activity, plotting the % activity against the peptide concentration and fitting the data to a variable slope model of non-linear regression to obtain the IC50 values. Data are from two or three independent experiments, each performed in […]

[2] = molecular target: T1, full‐length SHP2; assay: DiFMUP phosphatase assay, peptide activation (no activator); type: biochemical; details: 0.5 nM full-length SHP2, no tandem activator, peptide 0.096 nM – 51.2 µM
Method: as §1
SHP2 dephosphorylation of the fluorogenic substrate 6,8-difluoro-4-methylumbiliferyl phosphate (DiFMUP) was measured to evaluate the effect of acetylated peptides on SHP2 activity. Final concentrations of 0.5 nM full-length SHP2, 200 µM DiFMUP (Invitrogen) and 26 nM bisphosphorylated tandem ITIM-[dPEG4]2-ITSM (CASLO ApS) were used, unless stated otherwise, per well in 96-well plates (OptiPlate-96 F Black; PerkinElmer). For peptide activation assays, each well contained 60 µL of reaction buffer (50 mM HEPES pH 7.6, 150 mM NaCl, 1 mM EDTA, 0.05% Tween 20, freshly added 5 mM DTT), 10 µL of SHP2 and 20 µL of the test peptide (0.096 nM – 51.2 µM final concentration). For peptide inhibition assays in the presence of a SHP2 activator, each well contained 40 µL of reaction buffer (50 mM HEPES pH 7.6, 150 mM NaCl, 1 mM EDTA, 0.05% Tween 20, freshly added 5 mM DTT), 10 µL of SHP2 and 40 µL of previously mixed bisphosphorylated tandem ITIM-[dPEG4]2-ITSM activator and test peptide (0.096 nM – 51.2 µM or 0.376 nM – 200 µM final concentration). […] The fluorescence was immediately measured on a Synergy H1 Microplate Reader (BioTek) with the excitation and emission monitored at 358 nm and 452 nm, respectively, over 30 minutes. Data were analysed in Excel 2016 by subtracting background values from emission values and calculating the slope of the emission profiles. […]

[3] = tested on: full‐length SHP2 or isolated PTP domain; assay: EnzChek phosphate assay (peptide as substrate); type: biochemical; details: 50 nM full-length SHP2 or PTP domain, peptide 25–800 µM, absorbance 360 nm, three independent experiments
Method: 7. EnzChek phosphate assays
The EnzChek Phosphate Assay Kit (Thermo Fisher Scientific), which measures the release of inorganic phosphate generated from an enzymatic reaction, was used to evaluate Ac-ITSM(pTyr) and acetylated peptide 21 as potential substrates of SHP2. A reaction mixture consisting of 43 µL of dH2O, 0.5 µL of 1 M DTT ([…]), 5 µL of 20X reaction buffer, 20 µL of 2-amino-6-mercapto-7-methylpurine riboside (MESG) solution, 1.5 µL of purine nucleoside phosphorylase (PNP) solution and 10 µL of 0.5 µM full-length SHP2 or PTP domain (50 nM final concentration) was added to each well in a 96-well plate (SpectraPlate-96 MB; PerkinElmer). Samples were incubated for 10 minutes at room temperature and then 20 µL of Ac-ITSM(pTyr) or peptide 21 (final concentrations: 800 µM, 400 µM, 200 µM, 100 µM, 25 µM) was added to give a final volume of 100 µL per well. The absorbance was immediately measured at 360 nm on a Synergy H1 Microplate Reader (BioTek).
Data were analysed in GraphPad Prism 6 by plotting the absorbance against the peptide concentration. Data are from three independent experiments, each performed in technical triplicates.

[4] = tested on: WT HeLa cells; details: CCK-8, 100–300 µM, 16 h; three or four independent experiments in technical triplicates
Method: (§2) three or four independent experiments with 4 – 7 images taken per well in each […]
(§3) 7. Peptide cytotoxicity assays
(§4) The cytotoxicity of acetylated peptide 29 in WT Jurkat T cells and WT HeLa cells was determined using Cell Counting Kit-8 (CCK-8). Jurkat cells were seeded at 5 x 10^4 cells/well and HeLa cells were seeded at 5 x 10^3 cells/well in 96-well flat-bottom cell culture plates (Greiner Bio-One). HeLa cells were allowed to adhere overnight at 37°C […]
(§5) 200 µM for Jurkat cells and 100 µM, 200 µM or 300 µM for HeLa cells in a total volume of 100 µL, each concentration in triplicate wells. In addition, three wells containing media alone as the background, three wells containing vehicle (H2O) treated cells as the negative control and three wells containing cells treated with 5% DMSO (Jurkat cells) or 20% DMSO (HeLa cells) to induce cell death as the positive control, were included in the plate. Cells were incubated with the peptide or controls for 24 hours (Jurkat cells) or 16 hours (HeLa cells) at 37°C and 5% CO2, then 10 µL of CCK-8 solution (Sigma-Aldrich) was added to each well and incubated for 1.5 hours at 37°C

[5] = tested on: WT Jurkat T cells; details: CCK-8, 50–200 μM, 24 h; four independent experiments in technical triplicates
Method: as §2, §3, §4, §5

[6] = molecular target: T2, SHP2 C‐SH2 domain (Homo sapiens, UniProt Q06124); details: ITC, previously reported; read-out: previously reported ITC K D, C‐SH2; cited from earlier work
T2 construct: SHP2 N-SH2 domain (1–105), C-SH2 domain (106–220), PTP domain (224–541) and; His6 (pETM22 vector) (N, cleaved yes); made in house; host or cells: E. coli BL21(DE3)
T2 sequence (Q06124 106-220): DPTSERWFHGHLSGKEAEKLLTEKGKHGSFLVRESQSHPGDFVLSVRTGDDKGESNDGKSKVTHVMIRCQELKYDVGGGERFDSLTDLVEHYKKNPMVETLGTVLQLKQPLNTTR

[7] = molecular target: T3, SHP2 N‐SH2 domain (Homo sapiens, UniProt Q06124); details: ITC, previously reported; read-out: previously reported ITC K D, N‐SH2; cited from earlier work
T3 construct: SHP2 N-SH2 domain (1–105), C-SH2 domain (106–220), PTP domain (224–541) and; His6 (pETM22 vector) (N, cleaved yes); made in house; host or cells: E. coli BL21(DE3)
T3 sequence (Q06124 1-105): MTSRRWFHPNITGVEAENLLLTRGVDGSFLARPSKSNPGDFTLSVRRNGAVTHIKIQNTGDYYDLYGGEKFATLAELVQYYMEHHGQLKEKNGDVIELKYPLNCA

[8] = 0.5 nM full-length SHP2 activated with 26 nM bisphosphorylated ITIM-[dPEG4]2-ITSM, 200 µM DiFMUP, pH 7.6, 20 min pre-incubation at room temperature, two or three independent experiments in technical triplicates, read-out: IC50 ± SEM (DiFMUP activity assay)

CC[C@H](C)[C@H](NC(=O)[C@@H](NC(=O)[C@H](C)NC(=O)[C@H](Cc1ccc(C(F)(F)P(=O)(O)O)cc1)NC(=O)[C@H](CCC(=O)O)NC(=O)[C@@H](NC(=O)[C@H](CCC(N)=O)NC(C)=O)[C@@H](C)O)[C@@H](C)O)C(=O)N[C@@H](CCCCN)C(=O)N[C@@H](Cc1c[nH]cn1)C(=O)N1CCC[C@H]1C(N)=O [peptide 22] (Ac-QTE[F2Pmp]ATIKHP-NH2)
IC50 [1]: > 51200 nM
inhibitory activity against SHP2, in words [1]: loss of inhibitory activity

CC[C@H](C)[C@H](NC(=O)[C@@H](NC(=O)[C@H](C)NC(=O)[C@H](Cc1ccc(OP(=O)(O)O)cc1)NC(=O)[C@H](CCC(=O)O)NC(=O)[C@@H](NC(=O)[C@H](CCC(N)=O)NC(C)=O)[C@@H](C)O)[C@@H](C)O)C(=O)N[C@@H](CCCCN)C(=O)N[C@@H](Cc1c[nH]cn1)C(=O)N1CCC[C@H]1C(N)=O [peptide 21] (Ac-QTE[pY]ATIKHP-NH2)
IC50 [1, 8]: 1050 ± 502 nM
SHP2 phosphatase activity with peptide alone (activation) [2]: activated SHP2 only minimally at the highest peptide concentration
suitability as substrate of SHP2 (dephosphorylation) [3]: not a good SHP2 substrate

CC[C@H](C)[C@H](NC(=O)[C@@H](NC(=O)[C@H](C)NC(=O)[C@H](Cc1ccc(OC(C(=O)O)C(=O)O)cc1)NC(=O)[C@H](CCC(=O)O)NC(=O)[C@@H](NC(=O)[C@H](CCC(N)=O)NC(C)=O)[C@@H](C)O)[C@@H](C)O)C(=O)N[C@@H](CCCCN)C(=O)N[C@@H](Cc1c[nH]cn1)C(=O)N1CCC[C@H]1C(N)=O [peptide 24] (Ac-QTEY(X1)ATIKHP-NH2)
IC50 [1, 8]: 7820 ± 1950 nM

CC[C@H](C)[C@H](NC(=O)[C@@H](NC(=O)[C@H](C)NC(=O)[C@H](Cc1ccc(OC(C(=O)O)C(=O)O)cc1)NC(=O)[C@H](CCC(=O)O)NC(=O)[C@@H](NC(=O)[C@H](CCC(N)=O)NC(=O)COCCOCCNC(=O)[C@@H](CCCNC(=N)N)NC(=O)[C@@H](CCCNC(=N)N)NC(=O)[C@@H](CCCNC(=N)N)NC(=O)[C@@H](CCCNC(=N)N)NC(=O)[C@@H](CCCNC(=N)N)NC(=O)[C@@H](CCCNC(=N)N)NC(=O)[C@@H](CCCNC(=N)N)NC(=O)[C@@H](CCCNC(=N)N)NC(C)=O)[C@@H](C)O)[C@@H](C)O)C(=O)N[C@@H](CCCCN)C(=O)N[C@@H](Cc1c[nH]cn1)C(=O)N1CCC[C@H]1C(N)=O [peptide 29] (Ac-[dR][dR][dR][dR][dR][dR][dR][dR][AEEA]QTEY(X1)ATIKHP-NH2)
cytotoxicity (viability) in HeLa cells [4]: no toxicity
cytotoxicity (viability) in Jurkat cells [5]: only started showing a trend toward some toxicity at the highest concentration of 200 μM

PD‐1 ITSM: PD‐1 immunoreceptor tyrosine‐based switch motif phosphopeptide of the authors' earlier work (ref 11) (EQTEYATIVFP; phospho-Tyr5 (pTyr))
Kd [6]: 13 nM
Kd [7]: 167 nM

CC[C@H](C)[C@H](NC(=O)[C@@H](NC(=O)[C@H](C)NC(=O)[C@H](Cc1ccc(CP(=O)(O)O)cc1)NC(=O)[C@H](CCC(=O)O)NC(=O)[C@@H](NC(=O)[C@H](CCC(N)=O)NC(C)=O)[C@@H](C)O)[C@@H](C)O)C(=O)N[C@@H](CCCCN)C(=O)N[C@@H](Cc1c[nH]cn1)C(=O)N1CCC[C@H]1C(N)=O [peptide 23] (Ac-QTE[Pmp]ATIKHP-NH2)
IC50 ± SEM (DiFMUP activity assay) ([1]; 0.5 nM full-length SHP2 activated with 26 nM bisphosphorylated ITIM-[dPEG4]2-ITSM, 200 µM DiFMUP, pH 7.6, 20 min pre-incubation at room temperature, two or three independent experiments in technical triplicates): No inhibition
inhibitory activity against SHP2, in words [1]: loss of inhibitory activity

From PMC12118337, “Development of a Peptide Inhibitor Targeting the C‐SH2 Domain of the SHP2 Phosphatase” (Chembiochem, 2025)
